# Experimental data reported in paper PMC12903969, “Discovery of a Novel and Potent Kir4.1 Inhibitor as a Safe and Rapid‐Onset Antidepressant Agent in Mice” (Advanced Science, 2025).
# Where “and” joins values, the source holds several entries; their conditions need not be identical. Equal entries are not always repeated.
# Legend:
# C57BL/6J mice [1] = experiment: Novelty-suppressed feeding test (NSFT); format: in vivo
# Procedure: The mice were individually housed in new cages and deprived of food for 24 h. The testing equipment was a brightly lit plastic box measuring 40 × 40 × 30 cm^3 with a light intensity of 1100–1200 lux. Each mouse was positioned in a corner of the device with one food pellet located at the center. The latency to start chewing food was recorded within 5 min. Immediately thereafter, the mice were placed back in their home cage with pre‐measured food, and the amount consumed in the next 5 min was used as a baseline to account for appetite changes that might affect the outcome.
# C57BL/6J mice after CSDS [2] = experiment: Chronic social defeat stress (CSDS) model, sucrose preference test; format: in vivo
# Procedure: (§1) The 10‐day CSDS paradigm was conducted as previously described.^[ [24] ^] CD‐1 aggressive mice were singly housed in defeat cages on one side of a perforated plexiglass partition 24 h before the defeat session. Experimental C57BL/6J mice were placed daily on the resident cage side of a novel CD‐1 aggressor that rapidly initiated a physical attack on the intruder. After 10‐min of social defeat, the intruder mice were housed on the opposite side of the partition within a shared home cage, experiencing further sensory contact for the subsequent 24 h. In contrast, control mice were maintained in their home cages and allowed to explore the empty defeat cages for 10 min each day.
# Mice were individually housed with two identical bottles containing either 1% sucrose solution or tap water for 24 h. The bottles were then replaced to eliminate potential positional bias, followed by an additional 24‐h period with the same solutions. Subsequently, the mice were provided with tap water for 24 h. During the experimental phase, new bottles filled with either 1% sucrose solution or tap water were presented for 24 h, and the bottles were changed every 12 h. The bottles were weighed both before and after the 24‐h test to assess consumption of each solution.
# C57BL/6J mice after CSDS [3] = experiment: CSDS model, forced swim test; format: in vivo
# Procedure: as §1
# Mice were placed individually in a transparent glass cylinder (25 cm high, 10 cm wide) filled with water (temperature 23–25 °C) to a depth of 10 cm, and prevented from making contact with the bottom. Mice behaviors were videotaped from each side. The observation period lasted for 6 min, with the final 4 min used to measure immobile behavior, which was processed using the AnyMaze Tracking System (Stoelting).
# C57BL/6J mice after CSDS [4] = experiment: CSDS model, social interaction test; format: in vivo; conditions: single i.p. injection 10 mg kg−1
# Procedure: as §1
# C57BL/6J mice, comprising both control and experimental groups, were placed individually into the social open field with a plexiglass enclosure positioned along the side wall. Movement parameters, including the time spent in the interaction zone, corner zones, and locomotion, were monitored and analyzed over the two test sessions using the AnyMaze Tracking System. In the first session, the mice freely explored the arena for 2.5 min. Then, a new aggressive CD‐1 mouse was introduced into the plexiglass enclosure, and the experimental mice returned to the arena for the second 2.5‐min session. The social interaction ratio was determined as the ratio between the time the experimental mice spent in the interaction zone when the target CD‐1 was present and the time spent in the zone when it was absent.
# C57BL/6J mice [5] = experiment: DOI-induced head twitch response (HTR); format: in vivo; conditions: 10 mg kg−1, 30-min test period
# Procedure: Male C57BL/6J mice were habituated to the testing chambers for 30 min and 24 h after receiving acute doses of (S)‐ketamine (10 mg kg^−1, i.p.) or JX3212 (10 mg kg^−1, i.p.). Thirty minutes later, the mice received DOI at a dose of 5 mg kg^−1 (i.p.), and the head‐twitch response was scored over 30 min.
# C57BL/6J mice [6] = experiment: Open field test (OFT) after chronic administration; format: in vivo; conditions: chronic 10 mg kg−1 per day
# Procedure: This test was used to assess anxiety‐related behaviors in the mice. C57BL/6J mice were individually habituated to a 40 × 40 × 40 cm^3 open field arena under dim light for […]. Locomotor activity during the final 5 min was digitally recorded (30 fps) and analyzed using Tracking Master (Future Life Science (Shanghai) Co., Ltd., Shanghai, China). The primary endpoints included the total ambulatory distance (cm) and center‐zone exploration frequency (20 × 20 cm^2 central area).
# mice [7] = experiment: Y-maze; format: in vivo; conditions: chronic 10 mg kg−1 per day
# Procedure: This test was designed to evaluate spatial working memory. Briefly, mice were individually placed in a symmetrical Y‐maze and allowed to explore for 8 min. Entries were counted only when both hind paws crossed the arm threshold. Correct spatial alternation was defined as an entry into all three arms in an uninterrupted sequence (e.g., ABC, BCA or CAB each representing one alternation). The alternation percentage was derived as: [correct alternations/(total entries–2)] × 100%. After each session, the walls and floor of the maze were wiped with 75% ethanol and allowed to dry before the next animal was tested.
# mice [8] = experiment: Shuttle box test (SBT); format: in vivo
# Procedure: This test was designed to measure learning and memory function in rodents. The shuttle box consists of two compartments connected by a freely passable gate. The mice were allowed to explore the test chamber freely for 5 min before the test to eliminate exploratory reflexes. Each mouse was placed in one compartment of the shuttle box. The conditioning protocol began with a 5‐s conditioned stimulus presentation of light (200 lux) and auditory tone (100 dB, 1000 Hz), followed immediately by a 3‐s footshock (300 µA) unconditioned stimulus. Escape to the opposite compartment during the conditioned stimulus presentation was scored as an active avoidance response, whereas escape occurring only after shock onset was recorded as […]. […] Each test session consisted of 40 trials with 10‐s inter‐trial intervals, with the number of active avoidance responses systematically recorded.
# mice [9] = experiment: Rotarod test (RT); format: in vivo; conditions: chronic 10 mg kg−1 per day
# Procedure: The rotarod test was designed to evaluate the coordination and motor performance of rodents. The speed and time were set for the rod rotators. All experimental mice were allowed to adapt to a lower speed (5 rpm). For the formal test, the mice were placed on a rod spinning at 20 rpm, and the duration that the mice were able to hold on the rod at this speed was recorded. The maximum test duration was 20 min.
# mice [10] = experiment: Treadmill test (TT); format: in vivo; conditions: chronic 10 mg kg−1 per day
# Procedure: This test was designed to quantify locomotor endurance in rodents. The time (300 s) and speed (maximum: 30 rpm) parameters for the treadmill were set using a digital panel and the mice were placed in lanes. Gentle electrical probes (0.3 mA) served as motivational stimuli. Total distance traveled was automatically recorded using rotary encoder integration.
# mice [11] = experiment: 21-day chronic administration: body weight, organ weight, serum biochemistry
# [12] = single i.p. injection 10 mg kg−1
# [13] = serum, 10 mg/kg, 21-day chronic administration, individual animals
smiles,measurement,setting,value
CN[C@]1(c2ccccc2Cl)CCCCC1=O [(S)‐ketamine],NSFT latency to feed (in words),"C57BL/6J mice [1]; single dose 10 mg kg−1 i.p., 1 h after administration",significantly reduced the latency to feed
same,"SPT sucrose preference after CSDS, single mice",C57BL/6J mice after CSDS [2]; 10 mg/kg (Fig 3H),0.9625 and 0.9959 and 0.9967 and 0.7227 and 0.9713 and 0.6431 and 0.7826 and 0.9953
same,CSDS: sucrose preference in SPT (in words),C57BL/6J mice after CSDS [2]; [12],increased sucrose preference
same,"FST immobility time after CSDS, single mice",C57BL/6J mice after CSDS [3]; 10 mg/kg (Fig 3I),77.33 and 102.37 and 98.48 and 95.78 and 108.86 and 103.57 and 122.58
same,CSDS: immobility in FST (in words),C57BL/6J mice after CSDS [3]; [12],no significant impact
same,CSDS: time spent in corners in SIT (in words),C57BL/6J mice after CSDS [4],shorter duration spent in the corners
same,number of DOI-induced head twitches vs vehicle (in words),C57BL/6J mice [5],significantly more
CN(C)CCCN1c2ccccc2CCc2ccccc21 [imipramine],NSFT antidepressant-like effect (in words),"C57BL/6J mice [1]; imipramine 15 mg kg−1, single administration",failed to produce antidepressant‐like effects
same,food intake in home cage after NSFT (in words),"C57BL/6J mice [1]; repeated administration, vs vehicle",significant increase in food intake
same,NSFT antidepressant-like response after repeated administration (in words),"C57BL/6J mice [1]; seven days, imipramine 15 mg kg−1, JX3212 3/10 mg kg−1",elicited significant antidepressant‐like responses
same,OFT total and central distance traveled (in words),C57BL/6J mice [6],no pronounced differences
same,Y-maze alternation percentage vs vehicle (in words),mice [7],significantly reduced
same,shuttle box active avoidance responses (in words),mice [8]; chronic 10 mg kg−1 per day,no significant differences
same,"SBT active avoidance responses, single mice",mice [8]; chronic 10 mg/kg per day (Fig 5G),27 and 32 and 29 and 20 and 23 and 22
same,rotarod falling latency vs vehicle (in words),mice [9],notably reduced falling latency
same,treadmill running distance vs vehicle (in words),mice [10],notably reduced
same,body weight during 21-day chronic administration (in words),"mice [11]; 10 mg kg−1 per day, vs vehicle",marked increase in body weight
same,Body weight,"mice [11]; 10 mg/kg, day 7, individual animals",24.5 (2×) and 25.5 (2×) and 25.8 and 25.3 and 24.2 and 25.4 and 24.9 and 26
same,Body weight,"mice [11]; 10 mg/kg, day 8, individual animals",25.5 and 24.5 and 24.8 (2×) and 26.1 and 24.4 and 25.3 (2×) and 26.2 and 25.8
same,Body weight,"mice [11]; 10 mg/kg, day 9, individual animals",26.3 and 25.3 (2×) and 26 and 25.4 and 25.8 and 26.4 and 24.8 and 25 and 24.6
same,Body weight,"mice [11]; 10 mg/kg, day 10, individual animals",26.1 and 26 (2×) and 25.3 (3×) and 25.5 and 25.2 and 26.3 and 24.9
same,Body weight,"mice [11]; 10 mg/kg, day 11, individual animals",26.1 (2×) and 25.7 (2×) and 24.8 and 24.6 and 24.4 and 25.4 and 26 and 24.7
same,Body weight,"mice [11]; 10 mg/kg, day 12, individual animals",26.1 and 26.9 and 25 (2×) and 27.4 and 25.8 (2×) and 26.2 and 24.9 and 26.6
same,Body weight,"mice [11]; 10 mg/kg, day 13, individual animals",25.3 (3×) and 26.2 and 26.5 and 27.2 and 26.4 and 27.3 and 25.6 (2×)
same,Body weight,"mice [11]; 10 mg/kg, day 14, individual animals",25.3 and 25.8 and 26.8 (2×) and 25.7 and 26.7 and 27.4 and 26.6 and 26.4 and 27.1
same,Body weight,"mice [11]; 10 mg/kg, day 15, individual animals",27.1 and 25.5 and 25.4 and 25.6 and 26.4 (2×) and 25.8 and 27.3 and 26.3 and 26
same,Body weight,"mice [11]; 10 mg/kg, day 16, individual animals",27.2 (2×) and 26.3 and 26.5 and 25.8 and 26.7 and 25.4 and 26.1 and 26.9 and 25.7
same,serum alanine aminotransferase level (in words),mice [11]; 21-day administration,significant increase in alanine aminotransferase levels
same,serum aspartate aminotransferase and urea levels (in words),mice [11]; 21-day administration,comparable
same,serum creatinine level (in words),mice [11]; 21-day administration,marked decreases in creatinine levels
same,ALT,mice [11]; [13],39 and 34 and 31 and 33 and 48 and 37 and 52 and 40
same,AST,mice [11]; [13],151 and 169 and 124 and 111 and 168 and 222 and 112 and 198 and 207
same,Cr,mice [11]; [13],19 and 18 and 20 and 23 and 22
